10 compounds from patent publication US20100179173A1, “SUBSTITUTED FUSED PYRIMIDINES AS ANTAGONISTS OF GPR105 ACTIVITY” (priority 2007, published 2010) can be followed below.

The structures appear in SMILES notation.

The assay has as its target T1, chimpanzee GPR105 protein (Pan troglodytes, UniProt A0A2J8P2M1).
T1 construct: expressed in transfected cells
T1 sequence (A0A2J8P2M1 1-338): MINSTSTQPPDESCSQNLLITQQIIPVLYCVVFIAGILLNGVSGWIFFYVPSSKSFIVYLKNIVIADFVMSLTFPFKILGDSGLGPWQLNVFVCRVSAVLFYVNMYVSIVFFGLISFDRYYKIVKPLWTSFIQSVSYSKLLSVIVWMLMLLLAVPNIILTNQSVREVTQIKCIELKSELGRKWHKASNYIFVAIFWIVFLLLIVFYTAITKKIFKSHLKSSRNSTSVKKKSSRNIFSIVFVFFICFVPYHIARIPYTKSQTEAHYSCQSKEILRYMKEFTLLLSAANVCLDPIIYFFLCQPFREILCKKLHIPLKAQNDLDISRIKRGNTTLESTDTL
In words: Cell-Binding Assay: inhibition of UDP-glucose-induced Ca2+ signaling (FLIPR) in HEK/GPR105/Gqi5 cells. In kind it is cell-based. Particulars: HEK cells expressing chimpanzee GPR105 and Gqi5, UDP-glucose agonist at EC80. The protocol: A stable HEK clonal cell line expressing the chimpanzee GPR105 protein and the chimeric G protein Gqi5 was developed. The chimeric Gqi5 forces the coupling of GPR105 through the Gq (calcium) pathway and allows for monitoring of calcium signaling using a calcium binding fluorescent dye and the FLIPR (fluorometric imaging plate reader, MDS Sciex). […] Cells were incubated overnight at 37° C. and 5% CO2 to form a monolayer. On the following day, 30 μL of fluorescent no-wash dye was added to the cell monolayer and the plate was incubated for 60 min at 37° C., 5% CO2. […] of compound in 100% DMSO was added to cell/dye incubation using acoustic dispensing (Echo™, Labcyte). Following a 20 minute incubation of compound at room temperature, 6.25 μL of UDP-glucose agonist (at EC80) in Hank's Balanced Salt Solution (HBSS) containing 20 mM Hepes was added to cells and Ca^2+ signaling was monitored by FLIPR. Quantitation of the % inhibition of Ca^2+ signaling by antagonist was calculated using the maximum fluorescent signal detected. IC50's for the compounds of structural formula (I) were calculated as follows: […]
As for `CCc1cc(NC(=O)N2CCc3nc(-c4cccnc4)nc(-c4ccccc4C)c3C2)cc(-c2ccc(C(=O)O)cc2)c1`, the half-maximal inhibitory concentration (IC50) – broadly, the midpoint of a concentration-inhibition curve – was 4 nM.

`CCc1cc(Cl)cc(NC(=O)N2CCc3nc(-c4cncnc4)nc(-c4ccccc4C)c3C2)c1` came in with an IC50 of 10.5 nM.

With `CCc1cccc(NC(=O)N2CCc3nc(-c4ccnc(F)c4)nc(-c4ccccc4C)c3C2)c1`, the IC50 came out at 12 nM.

Take `CCc1cccc(NC(=O)N2CCc3nc(-c4cscc4C)nc(-c4ccccc4C)c3C2)c1`: the IC50 amounted to 65.1 nM.

On to `CCc1cc(NC(=O)N2CCc3nc(-c4cccnc4)nc(-c4ccccc4C)c3C2)cc(-c2cn(C)cn2)c1`, for which the IC50 came out at 5.6 nM.

As for `CCc1cccc(NC(=O)N2CCc3nc(-c4ccc(C#N)nc4)nc(-c4ccccc4C)c3C2)c1`, the IC50 came out at 7.8 nM.

In the case of `CCc1cc(NC(=O)N2CCc3nc(-c4cccnc4)nc(-c4ccccc4C)c3C2)cc(Oc2ccccc2)c1`, the IC50 is 8.1 nM.

On to `CCc1cncc(NC(=O)N2CCc3nc(-c4cccnc4)nc(-c4ccccc4C)c3C2)c1`, for which the IC50 amounted to 55.7 nM.

As to `CCc1cccc(NC(=O)N2CCc3nc(-c4ccnn4C)nc(-c4ccccc4C)c3C2)c1`, the IC50 is 34.5 nM.

`Cc1ccccc1-c1nc(-c2cccnc2)nc2c1CN(C(=O)Nc1cccc(-c3ccc(C(N)=O)cc3)c1)CC2` came in with an IC50 of 18.4 nM.
